{"source": "patent US20200261419A1", "about": "“COMBINATIONS FOR THE TREATMENT OF KIDNEY STONES” (Wake Forest University Health Sciences, priority 2015, published 2020)", "key": {"[1]": {"target": "T1, human HYPDH (Homo sapiens, UniProt Q9UF12)", "T1 construct": "Only the constructs containing the residues 147-515 and 156-515 were >96% loaded with FAD+ and active; made in house; host or cells: Escherichia coli", "T1 sequence (Q9UF12 71-439 limits assumed)": "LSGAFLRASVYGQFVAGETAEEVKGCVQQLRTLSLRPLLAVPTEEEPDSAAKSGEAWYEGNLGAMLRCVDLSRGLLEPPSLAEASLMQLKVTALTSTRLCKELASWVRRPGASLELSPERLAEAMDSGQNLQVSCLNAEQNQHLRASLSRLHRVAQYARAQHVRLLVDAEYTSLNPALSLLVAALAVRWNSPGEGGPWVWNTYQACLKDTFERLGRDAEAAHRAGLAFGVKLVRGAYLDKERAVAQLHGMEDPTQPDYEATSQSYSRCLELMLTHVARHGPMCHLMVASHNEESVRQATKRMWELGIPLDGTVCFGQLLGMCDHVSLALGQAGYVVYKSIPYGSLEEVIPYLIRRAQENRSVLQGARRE", "test": "Anaerobic titration of the FAD spectrum of HYPDH", "assay_type": "binding"}, "[2]": {"target": "T2, recombinant, human liver GO (the HAO1 gene product) (Homo sapiens, UniProt Q9UJM8)", "T2 sequence (Q9UJM8 1-370)": "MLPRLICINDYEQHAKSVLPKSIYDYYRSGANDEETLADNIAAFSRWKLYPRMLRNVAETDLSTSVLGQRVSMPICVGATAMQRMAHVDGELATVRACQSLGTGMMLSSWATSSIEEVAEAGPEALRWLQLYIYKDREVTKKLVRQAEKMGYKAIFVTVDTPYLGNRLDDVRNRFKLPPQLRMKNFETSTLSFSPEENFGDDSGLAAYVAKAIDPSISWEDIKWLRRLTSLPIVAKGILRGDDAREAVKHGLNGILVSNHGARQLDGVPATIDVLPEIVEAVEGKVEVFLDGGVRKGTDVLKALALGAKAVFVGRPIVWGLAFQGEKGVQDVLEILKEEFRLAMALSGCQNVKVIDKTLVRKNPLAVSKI", "test": "GO inhibition, coupled DCIP assay", "assay_type": "biochemical", "settings": "37° C., 100 mM potassium phosphate pH 7.5, 75 μM DCIP, 3 mM glycolate; read-out: apparent Ki", "experimental": "Testing of GO inhibitors. The inhibition of recombinant, human liver GO (the HAO1 gene product) is readily determined by a coupled assay that contains 2,6-dichloroindophenol (DCIP) (Murray et al. Biochemistry 47, 2439-2449, 2008). Briefly, GO is pre-incubated at 37° C. with or without inhibitor in 100 mM potassium phosphate pH 7.5 (0.1% DMSO final) for […]. An aliquot of pre-warmed DCIP and glycolate is added to start the reaction (final concentration 75 μM DCIP, 3 mM glycolate). The reaction rate is determined by monitoring the decrease at 600 nm (extinction coefficient of 21 mM^−1 cm^−1)."}}, "data": [{"smiles": "O=C(O)[C@@H]1C[C@@H](O)CN1", "note": "[Hyp, Hydroxyproline]", "values": [{"measurement": "Kd", "setting": "[1]", "value": 125, "unit": "µM"}]}, {"smiles": "CCCCCCCCCCCCSc1snnc1C(=O)O", "note": "[CDST]", "values": [{"measurement": "Ki", "setting": "[2]", "value": "~0.015", "unit": "µM"}]}]}
